Publication PMC7170889, “Synthesis and evaluation of designed PKC modulators for enhanced cancer immunotherapy” (Nature Communications, 2020)
pKi: −log10 of the molar value.

Key:
[1] = biological target: T1, PKCδ-GFP fusion protein (Homo sapiens, UniProt Q05655); assay: PKCδ-GFP translocation assay in living CHO-k1 cells (confocal microscopy); assay type: cell-based, Chinese hamster; details: for minimum effective concentration required to induce translocation of PKC-GFP to the membrane: tested at 200 and 1000 nM
T1 construct: expressed in transfected cells; host or cells: CHO-k1 (Chinese hamster ovary, ATCC)
Protocol: (§1) With a panel of compounds bearing diverse functionality at C13, we began to explore how these modifications affect PKC binding and biological function. Because an obvious prerequisite for PKC pathway involvement is binding to PKC, compounds were initially evaluated for PKC affinity in a cell-free competitive binding assay with tritiated phorbol dibutyrate ([^3H]-PDBu). Assays were performed with representative members of both the conventional (PKCα) and novel (PKCδ) PKC families. Subsequently, compounds were assayed for PKC isoform translocation in real time in living cells using an optical assay. Translocation to the plasma membrane is the hallmark of PKC activation[18],[57],[60] and therefore monitoring the subcellular localization of a PKCδ-GFP fusion protein via confocal microscopy offers a convenient method for determining whether a compound enters a cell and engages its PKC isoform target. Finally and of clinical significance, we also determined the effect of compounds on CD22 surface expression in vitro in NALM6 cells, an ALL cell line previously studied in connection with CD22-targeted CAR T cell therapy, and two additional lymphoma cell lines[11],[31],[65].
Scale bar represents 25 μm. Experiments performed in n = 3 biological replicates. b–d Cytosolic fluorescence normalized to t = 0 (time immediately prior to addition of compound to media) and plotted against time. Error bars excluded for clarity (data presented as the mean of n = 3 biological replicates). Individual curves with error bars included in Supplementary Information.
PKCδ-GFP Translocation Assay Protocol
Chinese hamster ovary factor K1 (CHO-k1, ATCC) cells were cultured in F-12 Kaighn’s media (Hyclone, 10% fetal bovine serum, 1% penicillin/streptomycin added, reffered to as F-12 +/+ below) at 37 ° C in an incubator (5% CO2). Cell cultures were maintained by splitting cells 1:3 when they reached ~75-100% confluence (every 2-3 days) as follows:
(Gibco) was used to remove the cells from the culture flask (T75, Falcon). 1 mL of the cell suspension was then added to 9 mL of fresh F-12 +/+ and the sample was sub-cultured until reaching confluence (~2-3 days).
Cells were counted using a Countess II Automated Cell Counter (Fisher). The cell suspension was diluted to 240,000 cells/mL with fresh F-12 +/+ and 2.5 mL of this diluted stock was added to one well in a 6-well plate. The cells were then cultured for 24 hours.
Cells were transfected with Lipofectamine 2000 reagent (Invitrogen) or DA 13:11 at a 10:1 charge […]
F-12 +/+ was aspirated and cells were washed with F-12 -/-. 2 mL of fresh F-12 -/- was then added to each well, taking care not to disturb adherent cells. For each well of CHO-k1 cells, 12.5 µL Lipofectamine 2000 reagent (Invitrogen) was added to 250 µL Opti-MEM reduced serum media (Invitrogen) in a polypropylene tube and incubated for 20 minutes at RT. Meanwhile, for each well, 4 µg of PKCδ-GFP pDNA and 250 µL Opti-MEM reduced serum media was added to a separate polypropylene tube. 250 µL of the Lipofectamine 2000 suspension was added to the DNA suspension and the solution incubated for 30 minutes at RT. 500 µL of the Lipofectamine/DNA suspension was added to the respective wells of the 6-well plate. The cells were then incubated at 37 ° C (5% CO2) for ~24 hrs.
F-12 +/+ was aspirated and cells were washed with F-12 -/-. 2.4 mL of fresh F-12 -/- was then added to each well, taking care not to disturb adherent cells. A 4 µg aliquot of PKCδ-GFP pDNA was added to PBS (pH 5.5, final volume 100 µL). 5.6 µL of DA 13:11 (2 mM stock in DMSO) was then added to the DNA solution, and the mixture was gently mixed (by flicking) for 20 seconds, at which point it was added directly to the respective wells of the 6-well plate.

[2] = biological target: T2, PKCα (Homo sapiens, UniProt P17252); assay: PKC competitive binding assay with [3H]-phorbol dibutyrate (PKCα); details: cell-free, competition with [3H]-PDBu, PS vesicles; read-out: Ki PKCα
T2 construct: purchased Invitrogen
Protocol: as §1
(§2) PKC Binding Assay Protocol […]
(§3) competition with 3H-phorbol-12,13-dibutyrate (3H-PDBu) as described below. This procedure entails a glass-fiber filtration method to determine bound radioligand.
(§4) Preparation of PKC binding assay buffer
(§5) To a 50 mL polypropylene tube was added Tris-HCl (pH 7.4, 1 M, 1 mL), KCl (1 M, 2 mL), CaCl2 (0.1 M, 30 μL), and bovine serum albumin (BSA, 40 mg, Sigma-Aldrich). This mixture was diluted to 20 mL with deionized H2O and mixed gently. The buffer was stored on ice until use. The final […]
(§6) Supplementary Table1. PKC binding assay buffer composition.
(§7) Preparation of phosphatidylserine (PS) vesicles
(§8) For every two assays, 3.5 mg phosphatidylserine (Avanti Polar Lipids, porcine, 25 mg/mL CHCl3 solution) was concentrated by removing chloroform under a stream of nitrogen followed by reduced pressure. The solid PS was suspended as vesicles in freshly prepared PKC binding assay buffer (3.5 mL) by sonicating six times for 30 sec, with a 30 sec rest between sonications (Branson Sonifier 250, power = 2, 50% duty cycle). The resulting milky cloudy mixture (1 mg/mL) was stored […]
(§9) Preparation of PKC isoform solution
(§10) Assay PKC was prepared by dissolving a 4 μg aliquot of the indicated recombinant human PKC isoform (Invitrogen) into 11.6 mL of PKC binding assay buffer (this amount is sufficient for two assays). The diluted PKC was stored on ice for immediate use.
(§11) Preparation of 3H-PDBu solution
(§12) 3H-PDBu (American Radiolabeled Chemicals, Inc.; 1 mCi/mL acetone solution; specific activity: […]) was diluted 10-fold with DMSO. The resulting 500 nM stock solution was further diluted with DMSO to 30 nM.
(§13) Preparation of analog compound dilutions
(§14) Compound dilutions were prepared by serially diluting from a chosen "high" concentration by factors of 3 or 4. For each analog compound, seven concentrations were used to define the […]
(§15) To a polypropylene tube was added 3.3 mL of 1 mg/mL PS vesicles solution, 11 mL of PKC isoform solution, and 1.1 mL of 30 nM 3H-PDBu solution were added. The resulting solution was vortexed to mix and stored on ice.
(§16) PKC binding assay protocol
(§17) - Glass-fiber filters (Whatman GF/B) were prepared by soaking them in a solution of aqueous polyethyleneimine (10% by vol, 18 mL) in deionized water (600 mL) for ≥1h.
(§18) - 500 mL "rinsing buffer" of 20 mM Tris, pH 7.4 was cooled on ice for the duration of the incubation period and for the remainder of the assay.
Triplicate data points were obtained for each analog concentration. For each data point, 280 μL of "Master Mix" Solution and 20 μL of analog compound at a specified concentration were added to a polypropylene tube. Non-specific 3H-PDBu binding was assessed in triplicate by substitution

[3] = biological target: T3, PKCδ (Homo sapiens, UniProt Q05655); assay: PKC competitive binding assay with [3H]-phorbol dibutyrate (PKCδ); details: cell-free, competition with [3H]-PDBu, PS vesicles
T3 construct: purchased Invitrogen
Protocol: as §1, §2, §3, §4, §5, §6, §7, §8, §9
Assay PKC was prepared by dissolving a 4 μg aliquot of the indicated recombinant human PKC isoform (Invitrogen) into 11.6 mL of PKC binding assay buffer (this amount is sufficient for two assays). The diluted PKC was stored on ice for immediate use. […]
μCi/mmol) was diluted 10-fold with DMSO. The resulting 500 nM stock solution was further diluted with DMSO to 30 nM.
as §13, §14, §15, §16, §17, §18
Triplicate data points were obtained for each analog concentration. For each data point, 280 μL of "Master Mix" Solution and 20 μL of analog compound at a specified concentration were added to a polypropylene tube. Non-specific 3H-PDBu binding was assessed in triplicate by substitution […]
μM). Maximal 3H-PDBu binding was assessed in triplicate by substitution of the analog compound with 20 μL DMSO. The solutions were vortexed to mix, incubated at 37 °C for 10 min, and […]

[4] = test system: PKC; assay: PKC competitive binding assay, isoform not specified; design: species or system human; details: charged substituents at C13; Table 1 data
Protocol: as §1, §2, §3, §4, §5, §6, §7, §8, §9, §10, §11, §12, §13, §14, §15, §16
- Glass-fiber filters (Whatman GF/B) were prepared by soaking them in a solution of […]

[5] = test system: CD22 surface expression in NALM6 cells; assay: CD22 surface expression in NALM6 cells (flow cytometry); assay type: cell-based, human; details: NALM6 cells at 1 nM relative to DMSO control; 24 h incubation, washout, 24 h sub-culture; n = 3
Protocol: CD22 Surface Expression Protocol – NALM6 Cells […]
unless otherwise noted below) at 37 ° C in an incubator (5% CO2). Cell cultures were maintained […]
Cell suspension from a confluent T75 flask (Fisher) was transferred to a 15 mL falcon tube and centrifuged at 1100 rpm for 7 minutes. The supernatant was aspirated, and the cell pellet was […]
Cells were counted using a Countess II Automated Cell
199 µL of this stock was added to 24 wells (enough for triplicate measurements for 8 different experimental conditions) in a 96-well plate. Dosing was […]
each experiment. 1 µL of DMSO or the appropriate stock solution of compound in DMSO was added to each well. Cells were incubated for 24 hours, at which point the cell suspensions were transferred to 1.5 mL Eppendorf tubes and diluted with 1.0 mL of PBS (Hyclone, without Ca2+ or Mg2+). Samples were centrifuged at 2000 rpm for 5 min at RT. The supernatant was aspirated, […]
Cells were sub-cultured between 2 […]
surface expression was assayed by flow cytometry.
Cells from one well were counted using a Countess II Automated Cell Counter (Fisher). ~200,000 – 300,000 cells from each well were added to 1.5 mL Eppendorf tubes containing PBS (final volume ~1.2 mL). The cell suspensions were centrifuged at 1500 rpm for 7 minutes at 4 °C. The supernatant was aspirated, and the cell pellet was resuspended in 99 µL of pre-chilled FACS […]
buffer (0.5% w/v BSA in PBS). […]
minutes. Samples were then diluted with an additional 1.0 mL of FACS buffer and centrifuged at 1500 rpm for 7 minutes at 4 °C. The supernatant was aspirated, the cell pellets were resuspended in 200 µL FACS buffer, and the resulting suspensions were transferred to FACS tubes (Fisher, […]
Cells were stained with DAPI and CD22 surface expression was analyzed using the FACScan Analyzer at the Stanford Shared FACS Facility. Data analysis was performed using FlowJo and Microsoft Excel.

T1 sequence (Q05655 whole entry, the tested form may be a part): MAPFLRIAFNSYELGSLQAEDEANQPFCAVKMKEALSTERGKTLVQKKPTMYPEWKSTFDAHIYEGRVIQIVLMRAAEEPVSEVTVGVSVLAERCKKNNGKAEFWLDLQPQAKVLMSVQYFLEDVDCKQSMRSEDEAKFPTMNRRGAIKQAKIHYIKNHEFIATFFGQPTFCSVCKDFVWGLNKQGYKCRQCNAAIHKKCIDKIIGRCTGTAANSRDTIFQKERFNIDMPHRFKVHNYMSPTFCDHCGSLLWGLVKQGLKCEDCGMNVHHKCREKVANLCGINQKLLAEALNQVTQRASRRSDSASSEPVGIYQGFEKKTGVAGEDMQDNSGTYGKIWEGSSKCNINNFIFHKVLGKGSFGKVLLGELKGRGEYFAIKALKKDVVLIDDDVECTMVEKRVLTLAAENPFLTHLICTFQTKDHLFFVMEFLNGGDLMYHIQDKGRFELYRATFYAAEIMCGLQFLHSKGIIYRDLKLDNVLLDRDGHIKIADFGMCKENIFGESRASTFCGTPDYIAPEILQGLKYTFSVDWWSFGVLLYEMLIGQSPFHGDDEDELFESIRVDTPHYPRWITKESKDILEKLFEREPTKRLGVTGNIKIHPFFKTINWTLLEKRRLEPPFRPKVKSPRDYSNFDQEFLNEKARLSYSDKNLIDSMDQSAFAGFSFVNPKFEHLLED
T3 sequence (Q05655 whole entry): as the sequence (Q05655 whole entry, the tested form may be a part) above

Row | SMILES | Emax at 0.2 µM ([1]; CHO-K1, 200 nM compound, CHO-k1 cells, n = 3, read-out: % Translocation (maximum translocation of PKCδ-GFP to the plasma membrane)) [%] | minimum effective concentration required to induce translocation of PKC-GFP to the membrane ([1]; CHO-k1 cells) [nM] | Emax at 1 µM ([1]; CHO-K1, 1000 nM compound, CHO-k1 cells, n = 3, read-out: % Translocation (maximum translocation of PKCδ-GFP to the plasma membrane)) [%] | sustained translocation of PKC ([1]; at up to 1000 nM) | pKi [2] | pKi [3] | decrease in affinity to PKC [4] | % Translocation (maximum translocation of PKCδ-GFP to the plasma membrane) ([1]; 200 nM compound, CHO-k1 cells, n = 3) [%] | Fold increase CD22 expression [5] [fold]
1 | CCCCCCCC(=O)O[C@H]1/C(=C/C(=O)OC)C[C@H]2C[C@H]([C@@H](C)O)OC(=O)C[C@H](O)C[C@@H]3C[C@H](OC(C)=O)C(C)(C)[C@](O)(C[C@@H]4C[C@@H](C)C[C@H](/C=C/C(C)(C)[C@]1(O)O2)O4)O3 [SUW226] | 75 | 200 |  |  |  |  |  |  | 
2 | CCCC=CC=CC(=O)OC1C(=CC(=O)OC)CC2CC(C(C)O)OC(=O)CC(O)CC3CC(OC(C)=O)C(C)(C)C(O)(CC4CC(OC(=O)CN(C)C)CC(C=CC(C)(C)C1(O)O2)O4)O3 (centres unmarked) [SUW212] |  | 1000 | 50 | did not achieve sustained translocation of PKC | 7.40 | 7.62 | 20-100 fold |  | 
3 | C=CCOC(=O)/C=C1\C[C@H]2C[C@]3(O)O[C@H](C[C@@H](O)CC(=O)O[C@@H]([C@@H](C)O)C[C@@H]4C/C(=C\C(=O)OC)[C@H](OC(=O)/C=C/C=C/CCC)[C@@](O)(O4)C(C)(C)/C=C/[C@@H](C1)O2)C[C@H](OC(C)=O)C3(C)C [SUW230] |  | 200 |  |  |  |  |  | 65 | 1.62
